For four compounds, GI50 and TGI results are on record in PubChem BioAssay (NCI).

Among the test systems are SK-MEL-5 melanoma; OVCAR-5 ovarian; M14 melanoma; NCI-H522 lung; SF-295 CNS; PC-3 prostate; SK-OV-3 ovarian; MALME-3M melanoma; IGROV1 ovarian; MCF7 breast; NCI-H460 lung; A549 NSCLC.
Test in all cases: growth of human tumour cells (NCI), 48 h

Each structure is given as a SMILES string.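 Values below derive from 48-hour exposures of cells grown in 96-well plates, with endpoints linearly interpolated between the two concentrations bracketing the appropriate inhibition level. The concentration for 50% growth inhibition is given as GI50. At the TGI there is no net growth.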 Bounds are passed on as bounds.

Turning to `NCCCn1c2c(c3ccc([N+](=O)[O-])cc3c1=O)C(=O)c1cc(F)ccc1-2`, the GI50 in the test on SK-MEL-5 melanoma was 0.0603 µM; in the test with OVCAR-5 ovarian, 0.122 µM; in the test with M14 melanoma, 0.0297 µM; in the test on NCI-H522 lung, less than 0.01 µM; in the test on SF-295 CNS, 0.0157 µM; in the test with PC-3 prostate, 0.0398 µM. Besides, the GI50 in the test on SK-OV-3 ovarian was 0.0139 µM; with MALME-3M melanoma, 0.0275 µM. Moreover, the TGI in the test with SK-MEL-5 melanoma was found to be 0.199 µM; in the test on OVCAR-5 ovarian, 0.71 µM; in the test on M14 melanoma, 0.104 µM; in the test with NCI-H522 lung, 0.116 µM; in the test on SF-295 CNS, 0.142 µM; in the test with PC-3 prostate it was 1.63 µM. The TGI was 0.349 µM in the test with SK-OV-3 ovarian and 0.161 µM with MALME-3M melanoma.

Consider `CCP(=O)(CC)C(Cl)(Cl)C(O)C(Cl)(Cl)Cl` (stereo not drawn), for which the TGI in the test with IGROV1 ovarian, with SK-MEL-5 melanoma, in the test with MCF7 breast, in the test with NCI-H460 lung, with A549 NSCLC and in the test on OVCAR-5 ovarian was greater than 100 µM each time. Also, the TGI with M14 melanoma, in the test with NCI-H522 lung, in the test with SF-295 CNS, in the test with PC-3 prostate and with SK-OV-3 ovarian was greater than 100 µM in each case.

For the compound `O=C1/C(=C/c2ccc(Cl)cc2)N=C(c2ccccc2)N1/N=C/c1ccccc1O`, the TGI in the test with IGROV1 ovarian is 26.4 µM; with SK-MEL-5 melanoma it was greater than 100 µM; in the test with MCF7 breast, greater than 100 µM; in the test with NCI-H460 lung it was 79.2 µM; with A549 NSCLC it was 81.6 µM; with OVCAR-5 ovarian, 34.8 µM. Moreover, the TGI was 19.1 µM in the test on M14 melanoma; 35.6 µM in the test with NCI-H522 lung; 29.7 µM in the test with SF-295 CNS; 28 µM in the test with PC-3 prostate; 22.4 µM in the test on SK-OV-3 ovarian; 18.7 µM with MALME-3M melanoma.

With `CN1C(=O)CN2C(Cl)(Cl)C2(c2ccccc2)c2cc(Cl)ccc21` (stereo not drawn), the TGI in the test with IGROV1 ovarian, in the test on SK-MEL-5 melanoma, with NCI-H460 lung, with OVCAR-5 ovarian, in the test on M14 melanoma and with NCI-H522 lung was greater than 100 µM throughout. Besides, the TGI in the test on SF-295 CNS, in the test with SK-OV-3 ovarian and in the test with MALME-3M melanoma was greater than 100 µM each time.
